These molecules were tested against T1, APOL1 (Homo sapiens, UniProt O14791) (assay: Multi-Tox Assay (MultiTox-Fluor Multiplex Cytotoxicity Assay in tet-inducible APOL1 T-REx-HEK293 cells; Table 46 does not say which APOL1 variant G0/G1/G2)). Settings: APOL1 variant not given.
T1 sequence (O14791 1-398 S342G/I384M): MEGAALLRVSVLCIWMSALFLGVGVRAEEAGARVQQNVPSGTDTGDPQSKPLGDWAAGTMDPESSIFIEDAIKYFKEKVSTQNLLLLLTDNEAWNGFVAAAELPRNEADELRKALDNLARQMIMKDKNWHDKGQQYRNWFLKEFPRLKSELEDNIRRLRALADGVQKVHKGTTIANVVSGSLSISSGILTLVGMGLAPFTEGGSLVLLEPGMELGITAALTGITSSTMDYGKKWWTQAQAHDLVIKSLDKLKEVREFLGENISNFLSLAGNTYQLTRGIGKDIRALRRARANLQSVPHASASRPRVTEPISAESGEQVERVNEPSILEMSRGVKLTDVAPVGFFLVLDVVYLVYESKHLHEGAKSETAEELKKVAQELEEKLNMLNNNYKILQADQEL
Format: cell-based

| SMILES | Multi-Tox Assay Max Activity (%) |
| --- | --- |
| C[C@H]1C[C@@]2(C[C@@H](c3cn(Cc4ccc(OC5CCOCC5)cc4)nn3)N1)OC[C@@H](O)c1cc(Cl)sc12 [Compound 266] | 100.0% |
| C[C@H]1C[C@@]2(C[C@@H](c3cn(CC4CCOCC4)nn3)N1)OC[C@@H](O)c1cc(Cl)sc12 [Compound 267] | 99.0% |
| C[C@H]1C[C@@]2(C[C@@H](c3cn(Cc4cccc5c4OCCO5)nn3)N1)OC[C@@H](O)c1cc(Cl)sc12 [Compound 268] | 99.0% |
| C[C@H]1C[C@@]2(C[C@@H](c3cn(CC4CCOC4)nn3)N1)OC[C@@H](O)c1cc(Cl)sc12 (some centres unmarked) [Compound 269] | 99.0% |
| COCC1(Cn2cc([C@@H]3C[C@]4(C[C@H](C)N3)OC[C@@H](O)c3cc(Cl)sc34)nn2)CC1 [Compound 270] | 93.0% |
| C[C@H]1C[C@@]2(C[C@@H](c3cn(Cc4cccc(CO)c4)nn3)N1)OC[C@@H](O)c1cc(Cl)sc12 [Compound 271] | 97.0% |
| Cc1nnc(Cn2cc([C@@H]3C[C@]4(C[C@H](C)N3)OC[C@@H](O)c3cc(Cl)sc34)nn2)[nH]1 [Compound 272] | 95.0% |
| Cc1ccnn1CCn1cc([C@@H]2C[C@]3(C[C@H](C)N2)OC[C@@H](O)c2cc(Cl)sc23)nn1 [Compound 274] | 97.0% |
| C[C@H]1C[C@@]2(C[C@@H](c3cn(Cc4ccc(O)nc4)nn3)N1)OC[C@@H](O)c1cc(Cl)sc12 [Compound 275] | 94.0% |
| C[C@H]1C[C@@]2(C[C@@H](c3cn(Cc4cnccn4)nn3)N1)OC[C@@H](O)c1cc(Cl)sc12 [Compound 276] | 100.0% |
| Cc1ncc(Cn2cc([C@@H]3C[C@]4(C[C@H](C)N3)OC[C@@H](O)c3cc(Cl)sc34)nn2)cn1 [Compound 277] | 100.0% |
| COc1cccc(Cn2cc([C@@H]3C[C@]4(C[C@H](C)N3)OC[C@@H](O)c3cc(Cl)sc34)nn2)c1 [Compound 278] | 100.0% |
| C[C@H]1C[C@@]2(C[C@@H](c3cn(Cc4cccc(O)c4)nn3)N1)OC[C@@H](O)c1cc(Cl)sc12 [Compound 279] | 97.0% |
| C[C@H]1C[C@@]2(C[C@@H](c3cn(Cc4cccnn4)nn3)N1)OC[C@@H](O)c1cc(Cl)sc12 [Compound 280] | 99.0% |
| C[C@H]1C[C@@]2(C[C@@H](c3cn(CC(O)c4ccccc4)nn3)N1)OC[C@@H](O)c1cc(Cl)sc12 (some centres unmarked) [Compound 281] | 99.0% |
| COCCn1cc([C@@H]2C[C@]3(C[C@H](C)N2)OC[C@@H](O)c2cc(Cl)sc23)nn1 [Compound 282] | 99.0% |
| Cc1c(Cn2cc([C@@H]3C[C@]4(C[C@H](C)N3)OC[C@@H](O)c3cc(Cl)sc34)nn2)cnn1C [Compound 285] | 98.0% |
| C[C@H]1C[C@@]2(C[C@@H](c3cn(CCC#N)nn3)N1)OC[C@@H](O)c1cc(Cl)sc12 [Compound 286] | 98.0% |
| CC(C)N1CC(Cn2cc([C@@H]3C[C@]4(C[C@H](C)N3)OC[C@@H](O)c3cc(Cl)sc34)nn2)CC1=O (some centres unmarked) [Compound 287] | 96.0% |
| C[C@H]1C[C@@]2(C[C@@H](c3cn(CCC(N)=O)nn3)N1)OC[C@@H](O)c1cc(Cl)sc12 [Compound 288] | 97.0% |
| CCn1cc(Cn2cc([C@@H]3C[C@]4(C[C@H](C)N3)OC[C@@H](O)c3cc(Cl)sc34)nn2)cn1 [Compound 290] | 99.0% |
| C[C@H]1C[C@@]2(C[C@@H](c3cn(Cc4cocn4)nn3)N1)OC[C@@H](O)c1cc(Cl)sc12 [Compound 291] | 100.0% |
| C[C@H]1C[C@@]2(C[C@@H](c3cn(Cc4ccccn4)nn3)N1)OC[C@@H](O)c1cc(Cl)sc12 [Compound 292] | 99.0% |
| COc1cc(F)cc(Cn2cc([C@@H]3C[C@]4(C[C@H](C)N3)OC[C@@H](O)c3cc(Cl)sc34)nn2)c1 [Compound 293] | 100.0% |
| Cc1ccc(Cn2cc([C@@H]3C[C@]4(C[C@H](C)N3)OC[C@@H](O)c3cc(Cl)sc34)nn2)nc1 [Compound 294] | 100.0% |

Same assay, conditions: IP50 = IC50 for cell proliferation, APOL1 variant not given

| SMILES | IC50 |
| --- | --- |
| C[C@H]1C[C@@]2(C[C@@H](c3cn(Cc4ccc(OC5CCOCC5)cc4)nn3)N1)OC[C@@H](O)c1cc(Cl)sc12 [Compound 266] | < 50 nM |
| C[C@H]1C[C@@]2(C[C@@H](c3cn(CC4CCOCC4)nn3)N1)OC[C@@H](O)c1cc(Cl)sc12 [Compound 267] | 50 to 500 nM |
| C[C@H]1C[C@@]2(C[C@@H](c3cn(Cc4cccc5c4OCCO5)nn3)N1)OC[C@@H](O)c1cc(Cl)sc12 [Compound 268] | 50 to 500 nM |
| C[C@H]1C[C@@]2(C[C@@H](c3cn(CC4CCOC4)nn3)N1)OC[C@@H](O)c1cc(Cl)sc12 (some centres unmarked) [Compound 269] | 50 to 500 nM |
| COCC1(Cn2cc([C@@H]3C[C@]4(C[C@H](C)N3)OC[C@@H](O)c3cc(Cl)sc34)nn2)CC1 [Compound 270] | 50 to 500 nM |
| C[C@H]1C[C@@]2(C[C@@H](c3cn(Cc4cccc(CO)c4)nn3)N1)OC[C@@H](O)c1cc(Cl)sc12 [Compound 271] | < 50 nM |
| Cc1nnc(Cn2cc([C@@H]3C[C@]4(C[C@H](C)N3)OC[C@@H](O)c3cc(Cl)sc34)nn2)[nH]1 [Compound 272] | 50 to 500 nM |
| Cc1ccnn1CCn1cc([C@@H]2C[C@]3(C[C@H](C)N2)OC[C@@H](O)c2cc(Cl)sc23)nn1 [Compound 274] | 50 to 500 nM |
| C[C@H]1C[C@@]2(C[C@@H](c3cn(Cc4ccc(O)nc4)nn3)N1)OC[C@@H](O)c1cc(Cl)sc12 [Compound 275] | 50 to 500 nM |
| C[C@H]1C[C@@]2(C[C@@H](c3cn(Cc4cnccn4)nn3)N1)OC[C@@H](O)c1cc(Cl)sc12 [Compound 276] | 50 to 500 nM |
| Cc1ncc(Cn2cc([C@@H]3C[C@]4(C[C@H](C)N3)OC[C@@H](O)c3cc(Cl)sc34)nn2)cn1 [Compound 277] | < 50 nM |
| COc1cccc(Cn2cc([C@@H]3C[C@]4(C[C@H](C)N3)OC[C@@H](O)c3cc(Cl)sc34)nn2)c1 [Compound 278] | < 50 nM |
| C[C@H]1C[C@@]2(C[C@@H](c3cn(Cc4cccc(O)c4)nn3)N1)OC[C@@H](O)c1cc(Cl)sc12 [Compound 279] | 50 to 500 nM |
| C[C@H]1C[C@@]2(C[C@@H](c3cn(Cc4cccnn4)nn3)N1)OC[C@@H](O)c1cc(Cl)sc12 [Compound 280] | 50 to 500 nM |
| C[C@H]1C[C@@]2(C[C@@H](c3cn(CC(O)c4ccccc4)nn3)N1)OC[C@@H](O)c1cc(Cl)sc12 (some centres unmarked) [Compound 281] | 50 to 500 nM |
| COCCn1cc([C@@H]2C[C@]3(C[C@H](C)N2)OC[C@@H](O)c2cc(Cl)sc23)nn1 [Compound 282] | < 50 nM |
| Cc1c(Cn2cc([C@@H]3C[C@]4(C[C@H](C)N3)OC[C@@H](O)c3cc(Cl)sc34)nn2)cnn1C [Compound 285] | 50 to 500 nM |
| C[C@H]1C[C@@]2(C[C@@H](c3cn(CCC#N)nn3)N1)OC[C@@H](O)c1cc(Cl)sc12 [Compound 286] | < 50 nM |
| CC(C)N1CC(Cn2cc([C@@H]3C[C@]4(C[C@H](C)N3)OC[C@@H](O)c3cc(Cl)sc34)nn2)CC1=O (some centres unmarked) [Compound 287] | 50 to 500 nM |
| C[C@H]1C[C@@]2(C[C@@H](c3cn(CCC(N)=O)nn3)N1)OC[C@@H](O)c1cc(Cl)sc12 [Compound 288] | 50 to 500 nM |
| CCn1cc(Cn2cc([C@@H]3C[C@]4(C[C@H](C)N3)OC[C@@H](O)c3cc(Cl)sc34)nn2)cn1 [Compound 290] | 50 to 500 nM |
| C[C@H]1C[C@@]2(C[C@@H](c3cn(Cc4cocn4)nn3)N1)OC[C@@H](O)c1cc(Cl)sc12 [Compound 291] | 50 to 500 nM |
| C[C@H]1C[C@@]2(C[C@@H](c3cn(Cc4ccccn4)nn3)N1)OC[C@@H](O)c1cc(Cl)sc12 [Compound 292] | 50 to 500 nM |
| COc1cc(F)cc(Cn2cc([C@@H]3C[C@]4(C[C@H](C)N3)OC[C@@H](O)c3cc(Cl)sc34)nn2)c1 [Compound 293] | < 50 nM |
| Cc1ccc(Cn2cc([C@@H]3C[C@]4(C[C@H](C)N3)OC[C@@H](O)c3cc(Cl)sc34)nn2)nc1 [Compound 294] | 50 to 500 nM |
